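Cells were grown in 96-well plates and exposed to each compound for 48 hours at five concentrations; endpoints were interpolated linearly between bracketing concentrations, or set to the highest concentration if not reached. GI50 marks 50% less growth.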 Activity calls are given as the source filed them. No stated cut-off is given here; in the data, active = GI50 up to about 1.1 µM and inactive = higher.
Tests used:
Test in all cases: DTP human tumour cell line panel, 48 h
UACC-62 = test system: UACC-62
SF-295 = test system: SF-295
OVCAR-8 = test system: OVCAR-8
SW-620 = test system: SW-620
NCI-H23 = test system: NCI-H23
SF-268 = test system: SF-268
HT-29 = test system: HT-29
MDA-MB-231 = test system: MDA-MB-231
HCT-15 = test system: HCT-15
UACC-257 = test system: UACC-257
EKVX = test system: EKVX
IGROV-1 = test system: IGROV-1
COLO 205 = test system: COLO 205
CCRF-CEM = test system: CCRF-CEM
SNB-75 = test system: SNB-75
OVCAR-3 = test system: OVCAR-3
NCI-H460 = test system: NCI-H460
NCI-H522 = test system: NCI-H522
K562 = test system: K562
NCI/ADR-RES = test system: NCI/ADR-RES
KM12 = test system: KM12
HCT-116 = test system: HCT-116
SNB-19 = test system: SNB-19
786-0 = test system: 786-0
OVCAR-5 = test system: OVCAR-5
Hs-578T = test system: Hs-578T
T47D = test system: T47D
MDA-MB-435 = test system: MDA-MB-435
BT-549 = test system: BT-549
DU-145 = test system: DU-145
OVCAR-4 = test system: OVCAR-4
UO-31 = test system: UO-31
RXF 393 = test system: RXF 393
SK-MEL-5 = test system: SK-MEL-5
SK-MEL-2 = test system: SK-MEL-2
LOX IMVI = test system: LOX IMVI
HL-60 = test system: HL-60
Malme-3M = test system: Malme-3M
A549 = test system: A549
TK-10 = test system: TK-10
M14 = test system: M14
MCF7 = test system: MCF7
ACHN = test system: ACHN
SK-OV-3 = test system: SK-OV-3
MOLT-4 = test system: MOLT-4
HOP-62 = test system: HOP-62
PC-3 = test system: PC-3
HCC 2998 = test system: HCC 2998
SN12C = test system: SN12C
MDA-N = test system: MDA-N
SR = test system: SR
SF-539 = test system: SF-539
CAKI-1 = test system: CAKI-1
A498 = test system: A498
NCI-H226 = test system: NCI-H226
SK-MEL-28 = test system: SK-MEL-28
U-251 = test system: U-251
HOP-92 = test system: HOP-92
RPMI-8226 = test system: RPMI-8226

SMILES: Fc1ccc(Oc2nc3ccc(C(F)(F)F)cc3nc2-c2ccccc2)cc1
- GI50 (UACC-62): 39.8 µM (inactive)
- GI50 (SF-295): 37.7 µM (inactive)
- GI50 (OVCAR-8): > 100 µM (inactive)
- GI50 (SW-620): > 10 µM (inactive)
- GI50 (NCI-H23): 77.3 µM (inactive)
- GI50 (SF-268): > 100 µM (inactive)
- GI50 (HT-29): 32.1 µM (inactive)
- GI50 (MDA-MB-231): > 100 µM (inactive)
- GI50 (HCT-15): > 100 µM
- GI50 (UACC-257): 47.2 µM (inactive)
- GI50 (EKVX): > 100 µM (inactive)
- GI50 (IGROV-1): > 100 µM (inactive)
- GI50 (COLO 205): > 100 µM (inactive)
- GI50 (CCRF-CEM): > 10 µM (inactive)
- GI50 (SNB-75): 27.9 µM (inactive)
- GI50 (OVCAR-3): > 100 µM (inactive)
- GI50 (NCI-H460): 66.2 µM (inactive)
- GI50 (NCI-H522): > 100 µM (inactive)
- GI50 (K562): > 10 µM (inactive)
- GI50 (NCI/ADR-RES): > 100 µM (inactive)
- GI50 (KM12): > 100 µM (inactive)
- GI50 (HCT-116): 85.1 µM (inactive)
- GI50 (SNB-19): 87.9 µM (inactive)
- GI50 (786-0): 61.7 µM (inactive)
- GI50 (OVCAR-5): > 100 µM (inactive)
- GI50 (Hs-578T): 28.2 µM (inactive)
- GI50 (T47D): 99.3 µM (inactive)
- GI50 (MDA-MB-435): 76.2 µM (inactive)
- GI50 (BT-549): > 100 µM (inactive)
- GI50 (DU-145): > 100 µM (inactive)
- GI50 (OVCAR-4): 60.5 µM (inactive)
- GI50 (UO-31): 44.3 µM (inactive)
- GI50 (RXF 393): 67.5 µM (inactive)
- GI50 (SK-MEL-5): 68.1 µM (inactive)
- GI50 (SK-MEL-2): 60 µM (inactive)
- GI50 (LOX IMVI): > 100 µM (inactive)
- GI50 (HL-60): 87.3 µM (inactive)
- GI50 (Malme-3M): 38 µM (inactive)
- GI50 (A549): 36.6 µM (inactive)
- GI50 (TK-10): 51.2 µM (inactive)
- GI50 (M14): 50.4 µM (inactive)
- GI50 (MCF7): 28.8 µM (inactive)
- GI50 (ACHN): 44.8 µM (inactive)
- GI50 (SK-OV-3): 81.5 µM (inactive)
- GI50 (MOLT-4): 46 µM (inactive)
- GI50 (HOP-62): 24.4 µM (inactive)
- GI50 (PC-3): > 100 µM (inactive)
- GI50 (HCC 2998): 14.5 µM (inactive)
- GI50 (SN12C): > 100 µM (inactive)
- GI50 (MDA-N): 99.5 µM (inactive)
- GI50 (SR): 24.3 µM (inactive)
- GI50 (SF-539): 30.8 µM (inactive)
- GI50 (CAKI-1): 27.9 µM (inactive)

SMILES: COc1cc(/C=N/n2c(C)n[nH]c2=O)cc(OC)c1OC
- GI50 (UACC-62): 63.1 µM (inactive)
- GI50 (SF-295): > 100 µM (inactive)
- GI50 (OVCAR-8): > 100 µM (inactive)
- GI50 (SW-620): > 100 µM (inactive)
- GI50 (NCI-H23): > 100 µM (inactive)
- GI50 (SF-268): > 100 µM (inactive)
- GI50 (HT-29): 90.4 µM (inactive)
- GI50 (A498): 23.4 µM (inactive)
- GI50 (MDA-MB-231): 57.5 µM (inactive)
- GI50 (HCT-15): > 100 µM
- GI50 (UACC-257): > 100 µM (inactive)
- GI50 (EKVX): 32.6 µM (inactive)
- GI50 (COLO 205): > 100 µM (inactive)
- GI50 (CCRF-CEM): 89.5 µM (inactive)
- GI50 (SNB-75): > 100 µM (inactive)
- GI50 (OVCAR-3): 51.4 µM (inactive)
- GI50 (NCI-H460): > 100 µM (inactive)
- GI50 (K562): > 100 µM (inactive)
- GI50 (NCI/ADR-RES): > 100 µM (inactive)
- GI50 (KM12): 60.1 µM (inactive)
- GI50 (NCI-H226): > 100 µM (inactive)
- GI50 (SK-MEL-28): > 100 µM (inactive)
- GI50 (HCT-116): > 100 µM (inactive)
- GI50 (SNB-19): > 100 µM (inactive)
- GI50 (786-0): > 100 µM (inactive)
- GI50 (OVCAR-5): 80.5 µM (inactive)
- GI50 (Hs-578T): 0.583 µM (active)
- GI50 (U-251): > 100 µM (inactive)
- GI50 (T47D): 71.3 µM (inactive)
- GI50 (MDA-MB-435): 62.5 µM (inactive)
- GI50 (BT-549): 78 µM (inactive)
- GI50 (OVCAR-4): > 100 µM (inactive)
- GI50 (UO-31): 84.3 µM (inactive)
- GI50 (RXF 393): 27.4 µM (inactive)
- GI50 (SK-MEL-2): > 100 µM (inactive)
- GI50 (Malme-3M): > 100 µM (inactive)
- GI50 (A549): > 100 µM (inactive)
- GI50 (M14): > 100 µM (inactive)
- GI50 (MCF7): > 100 µM (inactive)
- GI50 (ACHN): > 100 µM (inactive)
- GI50 (SK-OV-3): > 100 µM (inactive)
- GI50 (MOLT-4): > 100 µM (inactive)
- GI50 (HOP-62): > 100 µM (inactive)
- GI50 (PC-3): > 100 µM (inactive)
- GI50 (HCC 2998): > 100 µM (inactive)
- GI50 (SN12C): > 100 µM (inactive)
- GI50 (MDA-N): > 100 µM (inactive)
- GI50 (SF-539): > 100 µM (inactive)
- GI50 (CAKI-1): > 100 µM (inactive)

SMILES: COc1cc([C@@H]2c3cc4c(cc3[C@@H](c3c(O)cc(O)c5c3O[C@H](c3ccc(O)c(O)c3)[C@@H](O)C5)[C@H]3COC(=O)[C@H]23)OCO4)cc(OC)c1O
- GI50 (UACC-62): > 100 µM (inactive)
- GI50 (SF-295): > 100 µM (inactive)
- GI50 (OVCAR-8): > 100 µM (inactive)
- GI50 (SW-620): 58.9 µM (inactive)
- GI50 (NCI-H23): > 100 µM (inactive)
- GI50 (HOP-92): > 100 µM (inactive)
- GI50 (SF-268): > 100 µM (inactive)
- GI50 (HT-29): > 100 µM (inactive)
- GI50 (A498): > 100 µM (inactive)
- GI50 (MDA-MB-231): > 100 µM (inactive)
- GI50 (HCT-15): > 100 µM
- GI50 (UACC-257): > 100 µM (inactive)
- GI50 (EKVX): > 100 µM (inactive)
- GI50 (IGROV-1): > 100 µM (inactive)
- GI50 (COLO 205): > 100 µM (inactive)
- GI50 (CCRF-CEM): 63.2 µM (inactive)
- GI50 (OVCAR-3): > 100 µM (inactive)
- GI50 (NCI-H460): > 100 µM (inactive)
- GI50 (NCI-H522): 43.6 µM (inactive)
- GI50 (K562): 31.7 µM (inactive)
- GI50 (NCI/ADR-RES): > 100 µM (inactive)
- GI50 (KM12): > 100 µM (inactive)
- GI50 (SK-MEL-28): 89.1 µM (inactive)
- GI50 (HCT-116): 72.8 µM (inactive)
- GI50 (SNB-19): > 100 µM (inactive)
- GI50 (786-0): > 100 µM (inactive)
- GI50 (OVCAR-5): > 100 µM (inactive)
- GI50 (Hs-578T): > 100 µM (inactive)
- GI50 (U-251): > 100 µM (inactive)
- GI50 (T47D): > 100 µM (inactive)
- GI50 (MDA-MB-435): > 100 µM (inactive)
- GI50 (BT-549): > 100 µM (inactive)
- GI50 (DU-145): > 100 µM (inactive)
- GI50 (OVCAR-4): > 100 µM (inactive)
- GI50 (RXF 393): > 100 µM (inactive)
- GI50 (SK-MEL-5): 46.7 µM (inactive)
- GI50 (SK-MEL-2): > 100 µM (inactive)
- GI50 (LOX IMVI): > 100 µM (inactive)
- GI50 (HL-60): 27 µM (inactive)
- GI50 (Malme-3M): > 100 µM (inactive)
- GI50 (A549): > 100 µM (inactive)
- GI50 (TK-10): > 100 µM (inactive)
- GI50 (M14): > 100 µM (inactive)
- GI50 (MCF7): > 100 µM (inactive)
- GI50 (RPMI-8226): 53 µM (inactive)
- GI50 (ACHN): > 100 µM (inactive)
- GI50 (SK-OV-3): > 100 µM (inactive)
- GI50 (MOLT-4): 44 µM (inactive)
- GI50 (HOP-62): > 100 µM (inactive)
- GI50 (PC-3): > 100 µM (inactive)
- GI50 (HCC 2998): > 100 µM (inactive)
- GI50 (SN12C): > 100 µM (inactive)
- GI50 (MDA-N): 34.7 µM (inactive)
- GI50 (SF-539): 58.7 µM (inactive)
- GI50 (CAKI-1): > 100 µM (inactive)

From ChEMBL document CHEMBL1201862, “PubChem BioAssay data set” (2004)
